Tested on: H2122 cells
Assay: CRISPR/Cas9 synthetic lethal screen with TNO155 alone
Format: cell-based, human
Details: for neg|lfc: H2122 cells; for neg|score / pos|lfc: H2122

Compound: C[C@@H]1OCC2(CCN(c3cnc(Sc4ccnc(N)c4Cl)c(N)n3)CC2)[C@@H]1N [TNO155]
- neg|lfc (AATF knockout): −0.9199
- neg|lfc (ABT1 knockout): −1.0094
- neg|lfc (ADAT3 knockout): −1.2793
- neg|score (ADSL knockout): 0.0007395
- neg|lfc (ADSS knockout): −1.8117
- neg|score (ANAPC2 knockout): 0.0008681
- neg|lfc (ARIH1 knockout): −1.1405
- neg|score (ASF1A knockout): 0.0009774
- neg|score (ASH2L knockout): 0.000721
- neg|lfc (ATP5B knockout): −1.2287
- neg|lfc (ATP6V0B knockout): −1.1768
- neg|score (ATP6V1D knockout): 0.0008813
- neg|score (ATP6V1E1 knockout): 0.0009389
- neg|lfc (ATRX knockout): −1.7393
- neg|lfc (AURKA knockout): −1.3711
- neg|lfc (BCAS2 knockout): −0.7436
- neg|score (BCCIP knockout): 0.0009424
- neg|score (C7orf26 knockout): 0.0008313
- neg|score (C12orf45 knockout): 0.0008272
- neg|score (C16orf59 knockout): 0.0007587
- neg|score (C16orf80 knockout): 0.000879
- neg|score (C17orf70 knockout): 0.0008636
- neg|lfc (CCDC115 knockout): −1.2834
- neg|score (CCDC174 knockout): 0.0007499
- neg|lfc (CEBPZ knockout): −1.2677
- neg|score (CENPL knockout): 0.000924
- neg|lfc (CHMP6 knockout): −1.2891
- neg|score (CLP1 knockout): 0.000693
- neg|lfc (CNOT7 knockout): −0.9274
- neg|score (COPS4 knockout): 0.0009634
- neg|lfc (COPS5 knockout): −1.8379
- neg|lfc (COPS8 knockout): −0.9744
- neg|score (COX10 knockout): 0.0009358
- neg|lfc (COX11 knockout): −0.6679
- neg|lfc (CSNK2B knockout): −1.5191
- neg|score (CTNNBL1 knockout): 0.0007324
- neg|score (DCTN1 knockout): 0.0008908
- neg|lfc (DCTN5 knockout): −1.6239
- neg|lfc (DCTN6 knockout): −1.5775
- neg|lfc (DDOST knockout): −0.981
- neg|lfc (DDX52 knockout): −1.1513
- neg|score (DDX54 knockout): 0.0009466
- neg|score (DGCR8 knockout): 0.0008832
- neg|lfc (DPH5 knockout): −1.0575
- neg|lfc (DPY30 knockout): −0.7867
- neg|score (DR1 knockout): 0.0008727
- neg|lfc (DUT knockout): −0.9153
- neg|lfc (DYNC1I2 knockout): −2.041
- neg|score (EIF2B1 knockout): 0.0008906
- neg|lfc (EIF2B5 knockout): −1.2117
- neg|score (EXOC5 knockout): 0.0008724
- neg|lfc (EXOSC8 knockout): −1.0794
- neg|lfc (FASTKD5 knockout): −0.9103
- neg|score (FBL knockout): 0.0009079
- neg|score (FBXL5 knockout): 0.0009454
- neg|score (FDX1L knockout): 0.0007487
- neg|lfc (FOXRED1 knockout): −0.9267
- neg|lfc (FSCN1 knockout): −0.9432
- neg|lfc (FTSJ3 knockout): −1.5605
- neg|score (FXN knockout): 0.000775
- neg|lfc (FZD9 knockout): −1.077
- neg|score (GARS knockout): 0.0008542
- neg|lfc (GEMIN4 knockout): −1.3849
- neg|score (GINS1 knockout): 0.0009186
- neg|lfc (GSG2 knockout): −1.139
- neg|lfc (GTF2F2 knockout): −0.9729
- neg|lfc (GTF3C1 knockout): −1.0865
- neg|score (GTPBP4 knockout): 0.0008361
- neg|lfc (HEATR2 knockout): −0.6955
- neg|lfc (HGS knockout): −0.9397
- neg|lfc (HNF1B knockout): −0.822
- neg|lfc (HSPA8 knockout): −2.0457
- neg|score (HSPA14 knockout): 0.0009105
- neg|lfc (IDI1 knockout): −0.7039
- neg|score (ILF3 knockout): 0.0008338
- neg|lfc (IMP4 knockout): −1.8118
- neg|score (IPO13 knockout): 0.0008689
- neg|score (IQGAP3 knockout): 0.0008176
- neg|score (JMJD6 knockout): 0.0007183
- neg|lfc (KANSL3 knockout): −1.734
- neg|score (KBTBD2 knockout): 0.0008277
- neg|score (KDM2A knockout): 0.0008953
- neg|lfc (KIF18A knockout): −1.181
- neg|score (KRAS knockout): 0.0008327
- neg|lfc (KRR1 knockout): −1.4982
- neg|score (LSM3 knockout): 0.0008487
- neg|score (LSM5 knockout): 0.0007041
- neg|lfc (LSM12 knockout): −0.7213
- neg|score (MBTPS1 knockout): 0.0007681
- neg|score (MCAT knockout): 0.0009141
- neg|score (MCM4 knockout): 0.000877
- neg|lfc (MED11 knockout): −1.4228
- neg|score (MOGAT3 knockout): 0.000754
- neg|score (MRPL11 knockout): 0.0007518
- neg|lfc (MRPL38 knockout): −1.0939
- neg|lfc (MRPL50 knockout): −1.0478
- neg|score (MRPS2 knockout): 0.0007231
- neg|score (MRRF knockout): 0.0008379
- neg|score (MTERFD2 knockout): 0.0008506
- neg|score (MTHFD1 knockout): 0.0007217
- neg|score (MYBBP1A knockout): 0.0009866
- neg|lfc (MYBL2 knockout): −0.6253
- neg|score (NAA10 knockout): 0.0008935
- neg|score (NASP knockout): 0.0009277
- neg|score (NCAPD2 knockout): 0.0009387
- neg|score (NDUFB9 knockout): 0.0007395
- neg|score (NDUFB10 knockout): 0.0009074
- neg|score (NDUFS1 knockout): 0.0007194
- neg|lfc (NDUFS5 knockout): −0.8577
- neg|lfc (NEDD8 knockout): −2.4196
- neg|lfc (NIP7 knockout): −0.8825
- neg|lfc (NLE1 knockout): −1.8629
- neg|lfc (NME6 knockout): −1.1709
- neg|lfc (NOL6 knockout): −1.0733
- neg|score (NOL8 knockout): 0.000711
- neg|lfc (NPLOC4 knockout): −1.2039
- neg|score (NRF1 knockout): 0.0008548
- neg|lfc (NSMCE2 knockout): −1.577
- neg|lfc (NUBP1 knockout): −1.2742
- neg|lfc (OGT knockout): −1.3076
- neg|score (OR3A2 knockout): 0.0009552
- neg|lfc (PDHA1 knockout): −0.7499
- neg|lfc (PGGT1B knockout): −0.821
- neg|lfc (PI4KA knockout): −1.1904
- neg|score (PNN knockout): 0.0007486
- neg|score (POLD2 knockout): 0.0007896
- neg|score (POLR3A knockout): 0.0008536
- neg|score (PPIL4 knockout): 0.000952
- neg|lfc (PRKRIR knockout): −1.3008
- neg|score (PRPF19 knockout): 0.0007312
- neg|score (PRPF38B knockout): 0.0009555
- neg|lfc (PSMA6 knockout): −1.9056
- neg|score (PSMB4 knockout): 0.000768
- neg|lfc (QARS knockout): −1.1752
- neg|score (RABGGTA knockout): 0.0007119
- neg|lfc (RABIF knockout): −1.3292
- neg|lfc (RANBP1 knockout): −0.7938
- neg|lfc (RBM10 knockout): −1.4299
- neg|lfc (RBM48 knockout): −1.4768
- neg|score (RBX1 knockout): 0.0008383
- neg|score (RFC2 knockout): 0.0008264
- neg|score (RNASEH1 knockout): 0.000903
- neg|lfc (RNF20 knockout): −0.9142
- neg|score (RNF168 knockout): 0.0008246
- neg|score (RNPS1 knockout): 0.0009345
- neg|score (RPF2 knockout): 0.0009481
- neg|lfc (RPL7 knockout): −1.3947
- neg|lfc (RPL18A knockout): −1.5316
- neg|lfc (RPL35 knockout): −0.8092
- neg|lfc (RPP30 knockout): −1.2535
- neg|score (RPS2 knockout): 0.0008275
- neg|lfc (RPS8 knockout): −2.8705
- neg|lfc (RRM1 knockout): −1.5038
- neg|score (SASS6 knockout): 0.0008932
- neg|lfc (SKA2 knockout): −1.5851
- neg|lfc (SLC39A14 knockout): −0.9135
- neg|score (SMARCB1 knockout): 0.0008764
- neg|score (SOD1 knockout): 0.0007147
- neg|lfc (SRPRB knockout): −0.9129
- neg|score (SUPT4H1 knockout): 0.0007007
- neg|lfc (SUZ12 knockout): −0.9357
- neg|lfc (TARDBP knockout): −1.4541
- neg|lfc (TBCA knockout): −1.4702
- neg|lfc (TBP knockout): −1.6473
- neg|lfc (TFB1M knockout): −0.9751
- neg|score (TFDP1 knockout): 0.0007958
- neg|score (TIMM13 knockout): 0.0007917
- neg|score (TMEM130 knockout): 0.0009518
- neg|score (TNPO3 knockout): 0.0009376
- neg|score (TRIT1 knockout): 0.0007446
- neg|lfc (TSR1 knockout): −1.335
- neg|score (TTC27 knockout): 0.0008097
- neg|score (TTI1 knockout): 0.0008319
- neg|score (TUBE1 knockout): 0.0008874
- neg|score (TUT1 knockout): 0.0008619
- neg|lfc (TXNL4A knockout): −1.8929
- neg|score (TYMS knockout): 0.0007567
- neg|lfc (UBC knockout): −1.0724
- neg|score (UBE2I knockout): 0.0008281
- neg|lfc (UBR4 knockout): −1.0947
- neg|lfc (UBR5 knockout): −1.3884
- neg|score (UBTF knockout): 0.0007853
- neg|lfc (UQCRC2 knockout): −1.0409
- neg|lfc (UTP6 knockout): −2.6455
- neg|score (UTP20 knockout): 0.0007152
- neg|score (VMA21 knockout): 0.000773
- neg|lfc (VPS18 knockout): −1.3116
- neg|lfc (VPS53 knockout): −0.6999
- neg|lfc (VPS72 knockout): −0.5497
- neg|score (WDHD1 knockout): 0.0009781
- neg|score (WDR3 knockout): 0.0009589
- neg|score (WDR18 knockout): 0.0007708
- neg|lfc (WNK1 knockout): −1.0645
- neg|score (WRAP53 knockout): 0.0007984
- neg|score (XPR1 knockout): 0.000881
- neg|lfc (XRCC5 knockout): −1.6679
- neg|score (ZBTB11 knockout): 0.0007214
- neg|lfc (ZCCHC9 knockout): −1.957
- neg|score (ZNF131 knockout): 0.0008989
- neg|lfc (ZNRD1 knockout): −1.5763
- pos|lfc (gene ACTB): −1.1591
- pos|lfc (gene ALG3): −0.5782
- pos|lfc (gene ANAPC15): −1.2923
- pos|lfc (gene AP2S1): −1.3206
- pos|lfc (gene ARID4B): −0.9143
- pos|lfc (gene BRCA1): −0.6966
- pos|lfc (gene BUB1B): −0.8094
- pos|lfc (gene C1D): −1.3624
- pos|lfc (gene C16orf72): −2.2251
- pos|lfc (gene CABIN1): −0.7818
- pos|lfc (gene COPS6): −1.1267
- pos|lfc (gene CS): −1.0352
- pos|lfc (gene DARS2): −1.095
- pos|lfc (gene DCLRE1B): −0.6801
- pos|lfc (gene DDX49): −2.1703
- pos|lfc (gene DYNC1H1): −1.3605
- pos|lfc (gene DYNLRB1): −1.1311
- pos|lfc (gene EIF2S1): −1.3093
- pos|lfc (gene EIF2S2): −1.5347
- pos|lfc (gene EIF5AL1): −0.8423
- pos|lfc (gene EIF5B): −1.1819
- pos|lfc (gene FANCA): −0.6873
- pos|lfc (gene FANCG): −0.7949
- pos|lfc (gene FNTB): −0.9877
- pos|lfc (gene GCN1L1): −0.5542
- pos|lfc (gene GRWD1): −0.9019
- pos|lfc (gene GTPBP8): −1.0746
- pos|lfc (gene HNRNPL): −1.1529
- pos|lfc (gene HNRNPR): −0.5338
- pos|lfc (gene KIAA1429): −1.1326
- pos|lfc (gene LIMS1): −0.8407
- pos|lfc (gene MMGT1): −0.748
- pos|lfc (gene MRPL54): −0.8393
- pos|lfc (gene NDUFB2): −0.8331
- pos|lfc (gene NDUFC1): −0.9001
- pos|lfc (gene NOP16): −1.0035
- pos|lfc (gene PDCD7): −0.9939
- pos|lfc (gene PDE12): −0.8248
- pos|lfc (gene PEAR1): −0.6471
- pos|lfc (gene POLD3): −1.3598
- pos|lfc (gene POLR1C): −0.9691
- pos|lfc (gene POLR2F): −1.9506
- pos|lfc (gene PPHLN1): −0.829
- pos|lfc (gene PPOX): −0.7508
- pos|lfc (gene PWP2): −1.0599
- pos|lfc (gene RIMBP2): −0.4894
- pos|lfc (gene RMND1): −0.9991
- pos|lfc (gene RPL3): −1.3237
- pos|lfc (gene RPS19): −2.0213
- pos|lfc (gene SEZ6): −0.6228
- pos|lfc (gene SLC2A1): −0.9368
- pos|lfc (gene SMC3): −1.7209
- pos|lfc (gene SMC6): −1.1456
- pos|lfc (gene SMG5): −1.2307
- pos|lfc (gene SNRNP40): −1.1024
- pos|lfc (gene TEX10): −1.3169
- pos|lfc (gene TIFAB): −0.6891
- pos|lfc (gene TOMM22): −0.8272
- pos|lfc (gene TRAPPC4): −1.0187
- pos|lfc (gene TTI2): −0.8554
- pos|lfc (gene USP10): −0.902
- pos|lfc (gene WDR12): −1.1622
- pos|lfc (gene WDR92): −1.2556
- pos|lfc (gene ZNHIT6): −1.4893

— patent US20250082648A1, “COMPOSITIONS AND METHODS FOR ENHANCING KRAS INHIBITOR OR SHP2 INHIBITOR EFFICACY” (New York University, priority 2023, published 2025)
